Results published in patent US8183258B2, “Heterocyclic compounds and their uses” (Amgen Inc., priority 2007, dated 2012).
Like-named read-outs stand apart in the source and are kept apart here. Blank lines part the entries; values can stand above or below the compound they belong to.

Experiments:
[1] = tested on: mouse model of rheumatoid arthritis; conditions: in vivo; cited from earlier work
[2] = tested on: model of systemic lupus erythematosis; conditions: in vivo; cited from earlier work
PI3Kδ = target: T1, PI3Kδ (Homo sapiens, UniProt O00329); experiment: In vitro enzyme assay, residual ATP bioluminescence; format: biochemical
T1 construct: Full length p110 subunits of PI3k α, β and δ; polyHis (N); made in house; host or cells: Sf9 insect cells (baculovirus)
T1 sequence (P27986 whole entry partner, one chain of several): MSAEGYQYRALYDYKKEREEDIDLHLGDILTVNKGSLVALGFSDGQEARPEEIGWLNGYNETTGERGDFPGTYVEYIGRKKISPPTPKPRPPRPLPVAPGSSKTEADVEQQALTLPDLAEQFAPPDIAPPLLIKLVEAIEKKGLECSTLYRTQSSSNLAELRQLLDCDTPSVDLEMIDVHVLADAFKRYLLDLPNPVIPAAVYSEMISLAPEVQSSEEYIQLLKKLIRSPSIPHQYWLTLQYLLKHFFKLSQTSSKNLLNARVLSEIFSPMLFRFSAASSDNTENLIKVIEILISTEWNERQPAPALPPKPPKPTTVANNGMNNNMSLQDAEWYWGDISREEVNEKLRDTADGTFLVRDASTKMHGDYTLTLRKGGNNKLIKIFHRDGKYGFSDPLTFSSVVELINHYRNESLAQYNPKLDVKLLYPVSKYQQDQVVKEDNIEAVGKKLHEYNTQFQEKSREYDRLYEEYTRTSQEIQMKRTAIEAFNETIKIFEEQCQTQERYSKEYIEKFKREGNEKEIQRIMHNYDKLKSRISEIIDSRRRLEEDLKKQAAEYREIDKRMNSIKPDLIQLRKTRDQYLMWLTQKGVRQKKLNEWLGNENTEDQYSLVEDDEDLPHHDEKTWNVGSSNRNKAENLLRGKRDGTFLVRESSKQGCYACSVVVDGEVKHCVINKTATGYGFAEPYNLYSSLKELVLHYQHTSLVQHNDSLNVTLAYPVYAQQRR
Description: Full length p110 subunits of PI3k α, β and δ, N-terminally labeled with polyHis tag, were coexpressed with p85 with Baculo virus expression vectors in sf9 insect cells. P110/p85 heterodimers were purified by sequential Ni-NTA, Q-HP, Superdex-100 chromatography. Purified α, β and δ isozymes were stored at −20° C. in 20 mM Tris, pH 8, 0.2M NaCl, 50% glycerol, 5 mM DTT, 2 mM Na cholate. Truncated PI3Kγ, residues 114-1102, N-terminally labeled with polyHis tag, was expessed with Baculo virus in Hi5 insect cells. The γ isozyme was purified by sequential Ni-NTA, Superdex-200, Q-HP chromatography. The γ isozyme was stored frozen at −80° C. in NaH2PO4, pH 8, 0.2M NaCl, 1% ethylene glycol, 2 mM β-mercaptoethanol.
Assays were performed in 25 μL with the above final concentrations of components in white polyproplyene plates (Costar 3355). Phospatidyl inositol phosphoacceptor, PtdIns(4,5)P2 P4508, was from Echelon Biosciences. The ATPase activity of the alpha and gamma isozymes was not greatly stimulated by PtdIns(4,5)P2 under these conditions and was therefore omitted from the assay of these isozymes. Test compounds were dissolved in dimethyl sulfoxide and diluted with three-fold serial dilutions. The compound in DMSO (1 μL) was added per test well, and the inhibition relative to reactions containing no compound, with and without enzyme was determined. After assay incubation at room temperature, the reaction was stopped and residual ATP determined by addition of an equal volume of a commercial ATP bioluminescence kit (Perkin Elmer EasyLite) according to the manufacturer's instructions, and detected using a AnalystGT luminometer.

p110δ = target: T2, p110δ (Homo sapiens, UniProt O00329); conditions: cited from earlier work
T2 sequence (O00329 1-1044): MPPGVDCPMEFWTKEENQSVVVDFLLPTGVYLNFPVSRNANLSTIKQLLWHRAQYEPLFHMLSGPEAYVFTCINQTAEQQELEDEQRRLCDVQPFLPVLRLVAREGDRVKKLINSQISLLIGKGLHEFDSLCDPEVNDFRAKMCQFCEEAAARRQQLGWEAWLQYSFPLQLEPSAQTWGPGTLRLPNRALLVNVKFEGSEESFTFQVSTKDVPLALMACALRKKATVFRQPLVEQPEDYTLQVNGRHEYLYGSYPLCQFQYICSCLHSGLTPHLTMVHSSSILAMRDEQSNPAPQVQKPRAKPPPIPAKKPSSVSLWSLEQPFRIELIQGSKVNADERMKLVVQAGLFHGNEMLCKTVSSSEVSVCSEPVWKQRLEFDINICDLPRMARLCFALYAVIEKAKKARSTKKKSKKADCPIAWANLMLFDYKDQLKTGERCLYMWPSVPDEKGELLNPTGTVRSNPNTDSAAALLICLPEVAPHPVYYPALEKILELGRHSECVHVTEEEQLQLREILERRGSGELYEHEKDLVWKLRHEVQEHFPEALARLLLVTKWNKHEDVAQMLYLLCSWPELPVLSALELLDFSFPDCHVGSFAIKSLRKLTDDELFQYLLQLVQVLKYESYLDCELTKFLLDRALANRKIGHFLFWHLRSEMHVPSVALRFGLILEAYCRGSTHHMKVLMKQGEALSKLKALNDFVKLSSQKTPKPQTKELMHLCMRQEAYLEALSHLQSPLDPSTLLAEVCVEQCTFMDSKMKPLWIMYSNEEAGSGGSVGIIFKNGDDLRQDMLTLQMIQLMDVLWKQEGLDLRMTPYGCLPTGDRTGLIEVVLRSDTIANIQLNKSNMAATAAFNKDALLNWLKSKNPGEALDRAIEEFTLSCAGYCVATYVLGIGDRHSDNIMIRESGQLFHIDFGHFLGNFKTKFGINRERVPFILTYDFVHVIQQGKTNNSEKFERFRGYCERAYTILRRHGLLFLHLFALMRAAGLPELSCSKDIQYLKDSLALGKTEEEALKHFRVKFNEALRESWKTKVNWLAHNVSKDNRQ

protein kinases = conditions: cited from earlier work
[3] = tested on: ovalbumin-induced airway inflammation; conditions: cited from earlier work
[4] = tested on: passive cutaneous anaphylaxis (PCA); conditions: absence of functional delta (compound or p110δ D910A mice); cited from earlier work

IC50 (PI3Kδ; read-out: PI3Kδ IC50): 6870 nM
SMILES: Nc1cc(NCc2cc3cccc(Cl)c3nc2-c2ccccc2Cl)ncn1 [Example 2, N4-((8-Chloro-2-(2-chlorophenyl)quinolin-3-yl)-methyl)pyrimidine-4,6-diamine]

IC50 (PI3Kδ; read-out: PI3Kδ IC50): 127 nM
SMILES: Cc1cccc2cc(CNc3nc(N)ncc3C(F)(F)F)c(-c3ccccc3Cl)nc12 [Example 3, N4-((2-(2-chlorophenyl)-8-methylquinolin-3-yl)methyl)-5-(trifluoromethyl)pyrimidine-2,4-diamine]

IC50 (PI3Kδ; read-out: PI3Kδ IC50): 2820 nM
SMILES: Cc1cccc2cc(CNc3ncc(C(F)(F)F)c(N)n3)c(-c3ccccc3Cl)nc12 [Example 4, N2-((2-(2-chlorophenyl)-8-methylquinolin-3-yl)methyl)-5-(trifluoromethyl)pyrimidine-2,4-diamine]

IC50 (PI3Kδ; table after the in vitro enzyme assays, isoform and unit inferred, read-out: IC50): > 40000 nM
SMILES: NC(=O)c1cc(NS(=O)(=O)c2cc3cccc(Cl)c3nc2-c2ccccc2Cl)ccn1 [Example 7, 4-(8-chloro-2-(2-chlorophenyl)quinoline-3-sulfonamido)picolinamide]

Further lines, the compound ahead of its results:

SMILES: O=C1NC(=O)/C(=C\c2ccc3nccnc3c2)S1 [AS 605240]
efficacy in a mouse model of rheumatoid arthritis [1]: efficacious
onset of disease in a model of systemic lupus erythematosis [2]: delay onset of disease

SMILES: Cc1cccc2cc(CNc3nc(N)ncc3Cl)c(-c3ccccc3Cl)nc12 [Example 1, 5-Chloro-N4-((2-(2-chlorophenyl)-8-methylquinolin-3-yl)methyl)pyrimidine-2,4-diamine]
IC50 (PI3Kδ; read-out: PI3Kδ IC50): 165 nM

SMILES: Cc1ccccc1-n1c(Cn2cnc3c(N)ncnc32)nc2cccc(C)c2c1=O [IC87114]
inhibition of p110δ (p110δ): high nanomolar range (triple digit)
activity against any protein kinases tested (protein kinases): no activity
inflammation and disease in a murine model of asthma [3]: significantly ameliorate inflammation and disease
passive cutaneous anaphylaxis (PCA) [4]: significantly reduced
